Tested on: MV-4-11 cells
Assay: Gene expression microarray analysis (Affymetrix PrimeView) and GSEA
Format: cell-based, human
Set-up: RFU PODN (11730768_x_at) / Fold change /veh PODN (11730768_x_at) / RFU LINC00158 (11744669_a_at) / Fold change /veh LINC00158 (11744669_a_at) / RFU DUSP10 (11751237_a_at) / Fold change /veh DUSP10 (11751237_a_at) / RFU ID3 (11757404_x_at) / Fold change /veh ID3 (11757404_x_at) / RFU PLEKHG5 (11737974_s_at) / Fold change /veh PLEKHG5 (11737974_s_at) / RFU LRRC4B (11730491_at) / Fold change /veh LRRC4B (11730491_at) / RFU GIMAP4 (11747438_a_at) / Fold change /veh GIMAP4 (11747438_a_at) / RFU KRT8 (11758183_x_at) / Fold change /veh KRT8 (11758183_x_at) / RFU CNN1 (11734310_a_at) / Fold change /veh CNN1 (11734310_a_at) / RFU VPS37D (11726825_at) / Fold change /veh VPS37D (11726825_at) / RFU C10orf10 (11716522_x_at) / Fold change /veh C10orf10 (11716522_x_at) / RFU KIR2DL2 /// KIR2DL4 /// KIR2DL5A /// KIR2DL5B /// KIR2DS1 /// KIR2DS2 /// KIR2DS3 /// KIR2DS4 /// KIR3DL3 /// KIR3DL3 /// KIR3DS1 (11738374_at) / Fold change /veh KIR2DL2 /// KIR2DL4 /// KIR2DL5A /// KIR2DL5B /// KIR2DS1 /// KIR2DS2 /// KIR2DS3 /// KIR2DS4 /// KIR3DL3 /// KIR3DL3 /// KIR3DS1 (11738374_at) / RFU C1QL1 (11718748_at) / Fold change /veh C1QL1 (11718748_at) / RFU TMPRSS4 (11747572_a_at) / Fold change /veh TMPRSS4 (11747572_a_at) / RFU HAMP (11756126_x_at) / Fold change /veh HAMP (11756126_x_at) / RFU RNFT2 (11725882_a_at) / Fold change /veh RNFT2 (11725882_a_at) / RFU NR4A2 (11747474_a_at) / Fold change /veh NR4A2 (11747474_a_at) / RFU ABCC12 (11746883_a_at) / Fold change /veh ABCC12 (11746883_a_at) / RFU TMEM136 (11760407_x_at) / Fold change /veh TMEM136 (11760407_x_at) / RFU CLDN22 /// WWC2 (11732394_at) / Fold change /veh CLDN22 /// WWC2 (11732394_at) / RFU HLA-DPB1 (11760878_x_at) / Fold change /veh HLA-DPB1 (11760878_x_at) / RFU SPINT1 (11716480_a_at) / Fold change /veh SPINT1 (11716480_a_at) / RFU GAP43 (11754022_s_at) / Fold change /veh GAP43 (11754022_s_at) / RFU A4GNT (11735810_at) / Fold change /veh A4GNT (11735810_at) / RFU PRB3 (11715151_x_at) / Fold change /veh PRB3 (11715151_x_at) / RFU TUBB4B (11761932_at) / Fold change /veh TUBB4B (11761932_at) / RFU CAPN14 (11732068_a_at) / Fold change /veh CAPN14 (11732068_a_at) / RFU TMCC2 (11721928_a_at) / Fold change /veh TMCC2 (11721928_a_at) / RFU IRGQ (11745062_a_at) / Fold change /veh IRGQ (11745062_a_at) / RFU FAM174B (11720279_a_at) / Fold change /veh FAM174B (11720279_a_at) / RFU TMPRSS4 (11748680_a_at) / Fold change /veh TMPRSS4 (11748680_a_at) / RFU FAM212B (11763350_a_at) / Fold change /veh FAM212B (11763350_a_at) / RFU PLEKHG5 (11743358_a_at) / Fold change /veh PLEKHG5 (11743358_a_at) / RFU ZSCAN30 (11745921_a_at) / Fold change /veh ZSCAN30 (11745921_a_at) / RFU CMKLR1 (11741424_a_at) / Fold change /veh CMKLR1 (11741424_a_at) / RFU LOC101060620 /// MAPK8IP1 (11723275_at) / Fold change /veh LOC101060620 /// MAPK8IP1 (11723275_at) / RFU SPTSSB (11747773_x_at) / Fold change /veh SPTSSB (11747773_x_at) / RFU PRSS12 (11739890_at) / Fold change /veh PRSS12 (11739890_at) / RFU BIN1 (11741810_x_at) / Fold change /veh BIN1 (11741810_x_at) / RFU WNT11 (11732464_a_at) / Fold change /veh WNT11 (11732464_a_at) / RFU C10orf10 (11716521_a_at) / Fold change /veh C10orf10 (11716521_a_at) / RFU C5orf56 (11738089_at) / Fold change /veh C5orf56 (11738089_at) / RFU CYB561 (11721691_x_at) / Fold change /veh CYB561 (11721691_x_at) / RFU ANKRD19P (11752326_a_at) / Fold change /veh ANKRD19P (11752326_a_at) / RFU OR2T12 /// OR2T33 /// OR2T8 (11738714_s_at) / Fold change /veh OR2T12 /// OR2T33 /// OR2T8 (11738714_s_at) / RFU VCAN (11748164_a_at) / Fold change /veh VCAN (11748164_a_at) / RFU JSRP1 (11732532_at) / Fold change /veh JSRP1 (11732532_at) / RFU KRTAP10-11 (11738290_x_at) / Fold change /veh KRTAP10-11 (11738290_x_at) / RFU MYO3A (11730013_a_at) / Fold change /veh MYO3A (11730013_a_at) / RFU EBF3 (11725865_a_at) / Fold change /veh EBF3 (11725865_a_at) / RFU CAMK2N1 (11719241_x_at) / Fold change /veh CAMK2N1 (11719241_x_at) / RFU C5orf56 (11738088_a_at) / Fold change /veh C5orf56 (11738088_a_at) / RFU OLFML3 (11715873_a_at) / Fold change /veh OLFML3 (11715873_a_at) / RFU LOC100653217 /// NTM (11731650_a_at) / Fold change /veh LOC100653217 /// NTM (11731650_a_at) / RFU MAPK11 (11762145_a_at) / Fold change /veh MAPK11 (11762145_a_at) / RFU FIZ1 (11724087_x_at) / Fold change /veh FIZ1 (11724087_x_at) / RFU OASL (11726364_x_at) / Fold change /veh OASL (11726364_x_at) / RFU SOX15 (11748057_x_at) / Fold change /veh SOX15 (11748057_x_at) / RFU CD79A (11719716_a_at) / Fold change /veh CD79A (11719716_a_at) / RFU HIST1H1D (11736915_at) / Fold change /veh HIST1H1D (11736915_at) / RFU CASKIN2 (11723855_a_at) / Fold change /veh CASKIN2 (11723855_a_at) / RFU LOC730098 (11760151_x_at) / Fold change /veh LOC730098 (11760151_x_at) / RFU OR4N2 (11742367_at) / Fold change /veh OR4N2 (11742367_at) / RFU PRRT2 (11749266_a_at) / Fold change /veh PRRT2 (11749266_a_at) / RFU SNX32 (11753110_a_at) / Fold change /veh SNX32 (11753110_a_at) / RFU CDHR5 (11726645_a_at) / Fold change /veh CDHR5 (11726645_a_at) / RFU RCAN1 (11760418_a_at) / Fold change /veh RCAN1 (11760418_a_at) / RFU FAM167A (11723789_a_at) / Fold change /veh FAM167A (11723789_a_at) / RFU FAM26E (11764081_at) / Fold change /veh FAM26E (11764081_at) / RFU ISYNA1 (11749810_s_at) / Fold change /veh ISYNA1 (11749810_s_at) / RFU ACY1 (11761880_at) / Fold change /veh ACY1 (11761880_at) / RFU 11764098_at / Fold change /veh 11764098_at / RFU SAMD14 (11745864_x_at) / Fold change /veh SAMD14 (11745864_x_at) / RFU NPB (11741838_a_at) / Fold change /veh NPB (11741838_a_at) / RFU TMPRSS6 (11731388_a_at) / Fold change /veh TMPRSS6 (11731388_a_at) / RFU KRTAP10-2 (11738614_at) / Fold change /veh KRTAP10-2 (11738614_at) / RFU ARHGAP8 /// PRR5-ARHGAP8 (11727945_x_at) / Fold change /veh ARHGAP8 /// PRR5-ARHGAP8 (11727945_x_at) / RFU KRTAP5-7 /// NADSYN1 (11734609_at) / Fold change /veh KRTAP5-7 /// NADSYN1 (11734609_at) / RFU RASL12 (11751679_a_at) / Fold change /veh RASL12 (11751679_a_at) / RFU CDKN2B (11736163_a_at) / Fold change /veh CDKN2B (11736163_a_at) / RFU PRF1 (11729649_at) / Fold change /veh PRF1 (11729649_at) / RFU, ZNF638 /// ZNF638-IT1 / Fold change vs veh, ZNF638 /// ZNF638-IT1 / RFU, PANK3 / Fold change vs veh, PANK3 / RFU, SH3YL1 / Fold change vs veh, SH3YL1 / RFU, ZEB2 / Fold change vs veh, ZEB2 / RFU, NRIP1 / Fold change vs veh, NRIP1 / RFU, PTTG1IP / Fold change vs veh, PTTG1IP / RFU, CAPN2 / Fold change vs veh, CAPN2 / RFU, MED14 / Fold change vs veh, MED14 / RFU, SNORA58 / Fold change vs veh, SNORA58 / RFU, C1orf63 / Fold change vs veh, C1orf63 / RFU, LRRFIP1 / Fold change vs veh, LRRFIP1 / RFU, NDUFAF7 / Fold change vs veh, NDUFAF7 / RFU, SLC12A2 / Fold change vs veh, SLC12A2 / RFU, IBTK / Fold change vs veh, IBTK / RFU, ESF1 / Fold change vs veh, ESF1 / Fold change vs veh, TMEM50B / RFU, TAOK1 / Fold change vs veh, TAOK1 / RFU, ACBD3 / Fold change vs veh, ACBD3 / RFU, TMA16 / Fold change vs veh, TMA16 / RFU, RWDD3 / Fold change vs veh, RWDD3 / RFU, BCAT1 / Fold change vs veh, BCAT1 / RFU, EDEM3 / Fold change vs veh, EDEM3 / RFU, TMEM33 / Fold change vs veh, TMEM33 / RFU, WDR75 / Fold change vs veh, WDR75 / RFU, AHCTF1 / Fold change vs veh, AHCTF1 / RFU, TFRC / Fold change vs veh, TFRC / RFU, ZDHHC17 / Fold change vs veh, ZDHHC17 / RFU, NOM1 / Fold change vs veh, NOM1 / RFU, ARL8B / Fold change vs veh, ARL8B / RFU, ZBTB11 / Fold change vs veh, ZBTB11 / RFU, TAMM41 / Fold change vs veh, TAMM41 / RFU, KIAA1704 /// LOC100996395 / Fold change vs veh, KIAA1704 /// LOC100996395 / RFU, ING1 / Fold change vs veh, ING1 / RFU, TRMT61B / Fold change vs veh, TRMT61B / RFU, FUBP3 / Fold change vs veh, FUBP3 / RFU, TP53 / Fold change vs veh, TP53 / RFU, TNKS2 / Fold change vs veh, TNKS2 / RFU, ZFP14 / Fold change vs veh, ZFP14 / RFU, ACTR2 / Fold change vs veh, ACTR2 / RFU, PPP3R1 / Fold change vs veh, PPP3R1 / RFU, PIK3R1 / Fold change vs veh, PIK3R1 / RFU, HNRNPA1 / Fold change vs veh, HNRNPA1 / RFU, RNF170 / Fold change vs veh, RNF170 / RFU, ZNF28 / Fold change vs veh, ZNF28 / RFU, RNGTT / Fold change vs veh, RNGTT / RFU, OGT / Fold change vs veh, OGT / RFU, BRD1 / Fold change vs veh, BRD1 / RFU, MARS / Fold change vs veh, MARS / RFU, ZNF655 / Fold change vs veh, ZNF655 / RFU, FAHD1 / Fold change vs veh, FAHD1 / RFU, BDP1 / Fold change vs veh, BDP1 / RFU, LRRCC1 / Fold change vs veh, LRRCC1 / RFU, ARID1A / Fold change vs veh, ARID1A / RFU, ZNF146 / Fold change vs veh, ZNF146 / RFU, ZNF330 / Fold change vs veh, ZNF330 / RFU, GPN3 / Fold change vs veh, GPN3 / RFU, C9orf123 / Fold change vs veh, C9orf123 / RFU, N4BP2L2 / Fold change vs veh, N4BP2L2 / RFU, ARFIP1 / Fold change vs veh, ARFIP1 / RFU, FAM179B / Fold change vs veh, FAM179B / RFU, BCL10 / Fold change vs veh, BCL10 / RFU, UHRF1BP1L / Fold change vs veh, UHRF1BP1L / RFU, BET1 / Fold change vs veh, BET1 / RFU, CNOT2 / Fold change vs veh, CNOT2 / RFU, ZNF268 / Fold change vs veh, ZNF268 / Fold change vs veh, ZNF507 / RFU, DGCR2 / Fold change vs veh, DGCR2 / RFU, WDSUB1 / Fold change vs veh, WDSUB1 / Fold change vs veh, HSP90B1 /// MIR3652 / RFU, ADSS / Fold change vs veh, ADSS / RFU, GK / Fold change vs veh, GK / RFU, ZNF148 / Fold change vs veh, ZNF148 / RFU, TAF9 / Fold change vs veh, TAF9 / RFU, SLC1A5 / Fold change vs veh, SLC1A5 / RFU, SLMO2 / Fold change vs veh, SLMO2 / RFU, ABCC4 / Fold change vs veh, ABCC4 / RFU, LOC101060439 /// RAP1B / Fold change vs veh, LOC101060439 /// RAP1B / RFU, RFX7 / Fold change vs veh, RFX7 / RFU, GTPBP10 / Fold change vs veh, GTPBP10 / RFU, CNEP1R1 / Fold change vs veh, CNEP1R1 / RFU, BIVM-ERCC5 /// ERCC5 / Fold change vs veh, BIVM-ERCC5 /// ERCC5 / RFU, ILF3 / Fold change vs veh, ILF3 / RFU 11762660_at / Fold change /veh 11762660_at / RFU VCAN (11757783_s_at) / Fold change /veh VCAN (11757783_s_at) / RFU DDX43 (11728927_at) / Fold change /veh DDX43 (11728927_at) / RFU KRT8 (11758188_x_at) / Fold change /veh KRT8 (11758188_x_at) / RFU NKD1 (11759106_at) / Fold change /veh NKD1 (11759106_at) / RFU SRD5A1 (11742802_a_at) / Fold change /veh SRD5A1 (11742802_a_at) / RFU TPSAB1 /// TPSB2 (11721975_s_at) / Fold change /veh TPSAB1 /// TPSB2 (11721975_s_at) / RFU GSTM3 (11746129_a_at) / Fold change /veh GSTM3 (11746129_a_at) / RFU IL23R (11737362_x_at) / Fold change /veh IL23R (11737362_x_at) / RFU TMEM51 (11727254_a_at) / Fold change /veh TMEM51 (11727254_a_at) / RFU PIWIL2 (11732686_x_at) / Fold change /veh PIWIL2 (11732686_x_at) / RFU ORM1 (11744905_x_at) / Fold change /veh ORM1 (11744905_x_at) / RFU CCDC152 (11743942_at) / Fold change /veh CCDC152 (11743942_at) / RFU ECM1 (11717891_a_at) / Fold change /veh ECM1 (11717891_a_at) / RFU IL23R (11748794_a_at) / Fold change /veh IL23R (11748794_a_at) / RFU TNFAIP8L3 (11732012_x_at) / Fold change /veh TNFAIP8L3 (11732012_x_at) / RFU MBOAT4 (11741988_at) / Fold change /veh MBOAT4 (11741988_at) / RFU 11764193_at / Fold change /veh 11764193_at / RFU TMEM53 (11763286_at) / Fold change /veh TMEM53 (11763286_at) / RFU MAGEB2 (11727129_at) / Fold change /veh MAGEB2 (11727129_at) / RFU TMEM200A (11744735_a_at) / Fold change /veh TMEM200A (11744735_a_at) / RFU CCDC152 (11751479_a_at) / Fold change /veh CCDC152 (11751479_a_at) / RFU FAM211A (11726209_a_at) / Fold change /veh FAM211A (11726209_a_at) / RFU RGS16 (11746705_a_at) / Fold change /veh RGS16 (11746705_a_at) / RFU VCAN (11755009_s_at) / Fold change /veh VCAN (11755009_s_at) / RFU RHOB (11743442_s_at) / Fold change /veh RHOB (11743442_s_at) / RFU RGS16 (11720943_a_at) / Fold change /veh RGS16 (11720943_a_at) / RFU RGS16 (11720944_at) / Fold change /veh RGS16 (11720944_at) / RFU, VPS4B / Fold change vs veh, VPS4B / RFU, CREB1 / Fold change vs veh, CREB1 / RFU, DNAJC13 / Fold change vs veh, DNAJC13 / RFU, GNAQ / Fold change vs veh, GNAQ / RFU, CDK5R1 / Fold change vs veh, CDK5R1 / RFU, ZRANB3 / Fold change vs veh, ZRANB3 / RFU, CUL4A / Fold change vs veh, CUL4A / RFU, CCNY / Fold change vs veh, CCNY / RFU, UFL1 / Fold change vs veh, UFL1 / RFU, COG3 / Fold change vs veh, COG3 / RFU, DIAPH2 / Fold change vs veh, DIAPH2 / RFU, SKA2 / Fold change vs veh, SKA2 / RFU, AFF3 / Fold change vs veh, AFF3 / RFU, LMF1 / Fold change vs veh, LMF1 / RFU, IPO11 / Fold change vs veh, IPO11 / RFU, DFFB / Fold change vs veh, DFFB / RFU, FOXP1 / Fold change vs veh, FOXP1 / RFU, CARD8 / Fold change vs veh, CARD8 / RFU, STRN3 / Fold change vs veh, STRN3 / RFU, ADK / Fold change vs veh, ADK / RFU, RASSF2 / Fold change vs veh, RASSF2 / RFU, WIPF1 / Fold change vs veh, WIPF1 / RFU, LARP1B / Fold change vs veh, LARP1B / RFU, RASA1 / Fold change vs veh, RASA1 / RFU, RB1 / Fold change vs veh, RB1 / RFU, PPFIA1 / Fold change vs veh, PPFIA1 / RFU, MAT2A / Fold change vs veh, MAT2A / RFU, CCT5 / Fold change vs veh, CCT5 / RFU, WDR92 / Fold change vs veh, WDR92 / RFU, CUX1 / Fold change vs veh, CUX1 / RFU, TTC7A / Fold change vs veh, TTC7A / RFU, TMEM135 / Fold change vs veh, TMEM135 / RFU, DEPTOR / Fold change vs veh, DEPTOR / RFU, CPM / Fold change vs veh, CPM / RFU, DNAJB6 / Fold change vs veh, DNAJB6 / RFU, CACNA2D3 / Fold change vs veh, CACNA2D3 / RFU, DTX4 / Fold change vs veh, DTX4 / RFU, TFCP2 / Fold change vs veh, TFCP2 / RFU, GMCL1 /// GMCL1P1 / Fold change vs veh, GMCL1 /// GMCL1P1 / RFU, AEBP2 / Fold change vs veh, AEBP2 / RFU, SNHG1 /// SNORD22 /// SNORD25 /// SNORD26 /// SNORD27 /// SNORD28 /// SNORD29 /// SNORD31 / Fold change vs veh, SNHG1 /// SNORD22 /// SNORD25 /// SNORD26 /// SNORD27 /// SNORD28 /// SNORD29 /// SNORD31 / Fold change (Aza/veh), C12orf56 (ProbeSet 11735607_a_at) / Fold change (ACY-1035/veh), C12orf56 (ProbeSet 11735607_a_at) / Fold change (Aza/veh), FGFR1OP (ProbeSet 11751329_s_at) / Fold change (ACY-1035/veh), FGFR1OP (ProbeSet 11751329_s_at) / Fold change (Aza/veh), VPS36 (ProbeSet 11739960_a_at) / Fold change (ACY-1035/veh), VPS36 (ProbeSet 11739960_a_at) / RFU SYPL1 (11715823_x_at) / Fold change /veh SYPL1 (11715823_x_at) / RFU IGFBP7 (11715501_s_at) / Fold change /veh IGFBP7 (11715501_s_at) / RFU REEP3 (11722064_at) / Fold change /veh REEP3 (11722064_at) / RFU IGLL1 (11728026_x_at) / Fold change /veh IGLL1 (11728026_x_at): dose or concentration left out as unconfirmed
Details: ProbeSet 11718569_a_at; LIST D

`Nc1ccc(-c2cccs2)cc1NC(=O)c1ccc2c(c1)cc(C1CC1)n2CCN1CCOCC1` [ACY-1035] was tested, and the “Fold change vs veh, WIPF1” value was 0.95.
